Test results reported in ChEMBL document CHEMBL1201862, “PubChem BioAssay data set” (2004).
The source made the active and inactive calls.

Tests used:
Insulin-degrading enzyme [1] = target: T1, Insulin-degrading enzyme (Homo sapiens, UniProt P14735); assay: recombinant IDE activation, cell-free – biochemical, fluorescence polarization, counter-screen for IDE activator project, dose response (AID 588681)
T1 sequence (P14735 whole entry): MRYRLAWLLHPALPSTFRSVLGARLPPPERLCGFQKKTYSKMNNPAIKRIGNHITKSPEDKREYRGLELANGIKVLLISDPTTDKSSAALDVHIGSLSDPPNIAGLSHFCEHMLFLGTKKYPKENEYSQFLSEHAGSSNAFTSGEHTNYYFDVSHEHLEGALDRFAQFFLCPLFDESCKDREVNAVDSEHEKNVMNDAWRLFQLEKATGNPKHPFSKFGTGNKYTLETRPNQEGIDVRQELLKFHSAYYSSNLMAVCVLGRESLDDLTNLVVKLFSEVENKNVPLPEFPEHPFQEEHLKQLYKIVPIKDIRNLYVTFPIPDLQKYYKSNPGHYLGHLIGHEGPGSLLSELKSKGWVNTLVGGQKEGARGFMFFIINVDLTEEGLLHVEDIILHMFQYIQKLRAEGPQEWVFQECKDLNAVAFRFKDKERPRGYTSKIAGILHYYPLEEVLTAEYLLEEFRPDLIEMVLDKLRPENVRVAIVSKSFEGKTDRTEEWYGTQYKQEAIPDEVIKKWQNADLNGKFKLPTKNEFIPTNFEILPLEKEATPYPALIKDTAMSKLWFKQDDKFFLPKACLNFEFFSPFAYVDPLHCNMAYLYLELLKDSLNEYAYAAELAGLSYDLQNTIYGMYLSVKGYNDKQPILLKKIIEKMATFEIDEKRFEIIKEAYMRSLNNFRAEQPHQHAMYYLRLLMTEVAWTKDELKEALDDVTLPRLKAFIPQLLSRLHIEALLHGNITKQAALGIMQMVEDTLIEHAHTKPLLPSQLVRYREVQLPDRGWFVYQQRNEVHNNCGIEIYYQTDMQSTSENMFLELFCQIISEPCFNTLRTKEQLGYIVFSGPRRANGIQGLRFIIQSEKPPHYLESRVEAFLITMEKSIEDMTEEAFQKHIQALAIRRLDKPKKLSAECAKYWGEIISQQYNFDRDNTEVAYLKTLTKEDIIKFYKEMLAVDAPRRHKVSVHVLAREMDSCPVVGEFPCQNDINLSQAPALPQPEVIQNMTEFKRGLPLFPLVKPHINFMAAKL

HEK293 [2] = assay: optical interference in Abeta FP readout, dose response, artefact control for IDE activator project, biochemical, fluorescence polarization (AID 588442); assay type: functional, cell-based; conditions: Homo sapiens
HEK293 [3] = assay: membrane integrity loss in HEK cells – cell-based, fluorescence, cytotoxicity control for IDE activator project, dose response (AID 588440); assay type: functional; conditions: Homo sapiens;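 note: cytotoxicity by LDH release measuring loss of membrane integrity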
Insulin-degrading enzyme [4] = target: T1, Insulin-degrading enzyme; assay: cellular IDE activation of Abeta substrate cleavage – fluorescence polarization, HEK cells, dose response (AID 588439); assay type: functional, cell-based
Prothrombin = Prothrombin (Bos taurus, UniProt P00735); assay: thrombin protease inhibitors – biochemical, fluorescence polarization, uHTS hits, dose response (AID 602369); assay type: functional
[5] = target: Induced myeloid leukemia cell differentiation protein Mcl-1 (Homo sapiens, UniProt Q07820); assay type: functional
[6] = target: 72 kDa type IV collagenase (Homo sapiens, UniProt P08253); assay: Dose Response validation of uHTS RPN11 inhibitor hits using a MMP-2 Fluorescence assay.; assay type: functional
[7] = target: 26S proteasome non-ATPase regulatory subunit 14 (Homo sapiens, UniProt O00487); assay: inhibition of proteasome subunit RPN11 – biochemical, fluorescence polarization, uHTS hits, confirmation (AID 602368); assay type: functional
[8] = target: Melanin-concentrating hormone receptor 1 (Homo sapiens, UniProt Q99705); assay: Late-stage fluorescence-based counterscreen for antagonists of the G-protein coupled receptor 7 (GPR7): cell-based dose response assay to identify antagonists of the melanin-concentrating hormone receptor 1 (MCHR1) Set 5.; assay type: functional
[9] = target: T2, Neuropeptides B/W receptor type 1 (Homo sapiens, UniProt P48145); assay: human NPBW1 receptor blockade, IC50 – cell-based, fluorescence, dose response, set 5, late-stage follow-up (AID 588566); assay type: functional
T2 sequence (P48145 whole entry): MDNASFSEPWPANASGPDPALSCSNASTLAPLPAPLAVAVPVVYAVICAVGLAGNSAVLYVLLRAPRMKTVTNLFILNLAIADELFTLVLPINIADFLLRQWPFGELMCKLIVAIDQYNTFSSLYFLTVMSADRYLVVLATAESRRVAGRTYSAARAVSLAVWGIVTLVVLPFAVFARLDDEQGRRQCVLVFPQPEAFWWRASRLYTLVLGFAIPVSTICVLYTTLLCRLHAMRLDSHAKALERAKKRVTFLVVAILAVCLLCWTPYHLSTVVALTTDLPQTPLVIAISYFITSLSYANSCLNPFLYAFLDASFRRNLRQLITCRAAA

Caspase-3 = target: T3, Caspase-3 (Homo sapiens, UniProt P42574); assay: SAR Analysis of small molecule inhibitors of Sentrin-specific proteases (SENPs) using a Caspase-3 Selectivity assay. [Related pubchem assays (depositor defined):AID2540, AID2599, AID434973, AID489001]; assay type: functional
T3 sequence (P42574 whole entry): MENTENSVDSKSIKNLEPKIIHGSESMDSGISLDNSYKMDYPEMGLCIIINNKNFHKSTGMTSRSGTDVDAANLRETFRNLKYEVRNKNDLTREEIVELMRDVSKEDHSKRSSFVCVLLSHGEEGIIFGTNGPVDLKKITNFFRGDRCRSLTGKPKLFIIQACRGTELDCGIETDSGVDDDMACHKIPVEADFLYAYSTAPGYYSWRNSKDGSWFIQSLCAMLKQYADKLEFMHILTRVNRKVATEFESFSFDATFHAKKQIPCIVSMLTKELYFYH

[10] = target: T4, Sentrin-specific protease 6 (Homo sapiens, UniProt Q9GZR1); assay: SAR Analysis of small molecule inhibitors of Sentrin-specific protease 6 (SENP6) using a Luminescent assay. [Related pubchem assays (depositor defined):AID2582, AID2599]; assay type: functional
T4 sequence (Q9GZR1 whole entry): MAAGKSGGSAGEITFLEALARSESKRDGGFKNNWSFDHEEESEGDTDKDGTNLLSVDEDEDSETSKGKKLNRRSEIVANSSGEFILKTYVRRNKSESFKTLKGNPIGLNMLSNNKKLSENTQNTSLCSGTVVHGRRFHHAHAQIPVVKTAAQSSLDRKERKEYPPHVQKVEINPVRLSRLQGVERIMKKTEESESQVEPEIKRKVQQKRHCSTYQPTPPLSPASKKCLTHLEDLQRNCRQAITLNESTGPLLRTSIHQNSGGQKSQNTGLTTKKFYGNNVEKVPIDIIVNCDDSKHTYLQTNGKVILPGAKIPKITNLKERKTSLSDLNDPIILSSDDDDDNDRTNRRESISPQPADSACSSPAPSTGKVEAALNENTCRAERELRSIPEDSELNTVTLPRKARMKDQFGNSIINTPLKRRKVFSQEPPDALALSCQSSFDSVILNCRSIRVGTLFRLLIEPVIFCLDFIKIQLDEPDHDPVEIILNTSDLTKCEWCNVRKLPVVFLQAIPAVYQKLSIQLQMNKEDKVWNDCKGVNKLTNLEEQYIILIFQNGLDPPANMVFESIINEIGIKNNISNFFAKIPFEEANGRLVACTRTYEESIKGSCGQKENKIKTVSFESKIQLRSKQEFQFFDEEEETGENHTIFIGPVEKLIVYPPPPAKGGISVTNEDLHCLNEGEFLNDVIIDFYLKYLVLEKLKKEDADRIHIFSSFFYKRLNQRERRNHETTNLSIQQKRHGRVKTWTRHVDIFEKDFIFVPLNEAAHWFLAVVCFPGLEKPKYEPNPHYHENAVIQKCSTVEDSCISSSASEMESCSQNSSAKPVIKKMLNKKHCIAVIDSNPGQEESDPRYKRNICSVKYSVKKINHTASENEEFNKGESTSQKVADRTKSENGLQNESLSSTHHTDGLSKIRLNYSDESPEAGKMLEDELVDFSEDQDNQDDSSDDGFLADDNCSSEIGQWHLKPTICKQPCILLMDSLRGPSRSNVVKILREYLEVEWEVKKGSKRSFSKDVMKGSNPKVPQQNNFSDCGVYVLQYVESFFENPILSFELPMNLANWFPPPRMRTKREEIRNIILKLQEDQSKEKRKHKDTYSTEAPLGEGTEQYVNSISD

[11] = target: T5, Sentrin-specific protease 7 (Homo sapiens, UniProt Q9BQF6); assay: inhibition of human SENP7 cleavage activity – biochemical, luminescence, SAR follow-up (AID 504497); assay type: functional
T5 sequence (Q9BQF6 whole entry): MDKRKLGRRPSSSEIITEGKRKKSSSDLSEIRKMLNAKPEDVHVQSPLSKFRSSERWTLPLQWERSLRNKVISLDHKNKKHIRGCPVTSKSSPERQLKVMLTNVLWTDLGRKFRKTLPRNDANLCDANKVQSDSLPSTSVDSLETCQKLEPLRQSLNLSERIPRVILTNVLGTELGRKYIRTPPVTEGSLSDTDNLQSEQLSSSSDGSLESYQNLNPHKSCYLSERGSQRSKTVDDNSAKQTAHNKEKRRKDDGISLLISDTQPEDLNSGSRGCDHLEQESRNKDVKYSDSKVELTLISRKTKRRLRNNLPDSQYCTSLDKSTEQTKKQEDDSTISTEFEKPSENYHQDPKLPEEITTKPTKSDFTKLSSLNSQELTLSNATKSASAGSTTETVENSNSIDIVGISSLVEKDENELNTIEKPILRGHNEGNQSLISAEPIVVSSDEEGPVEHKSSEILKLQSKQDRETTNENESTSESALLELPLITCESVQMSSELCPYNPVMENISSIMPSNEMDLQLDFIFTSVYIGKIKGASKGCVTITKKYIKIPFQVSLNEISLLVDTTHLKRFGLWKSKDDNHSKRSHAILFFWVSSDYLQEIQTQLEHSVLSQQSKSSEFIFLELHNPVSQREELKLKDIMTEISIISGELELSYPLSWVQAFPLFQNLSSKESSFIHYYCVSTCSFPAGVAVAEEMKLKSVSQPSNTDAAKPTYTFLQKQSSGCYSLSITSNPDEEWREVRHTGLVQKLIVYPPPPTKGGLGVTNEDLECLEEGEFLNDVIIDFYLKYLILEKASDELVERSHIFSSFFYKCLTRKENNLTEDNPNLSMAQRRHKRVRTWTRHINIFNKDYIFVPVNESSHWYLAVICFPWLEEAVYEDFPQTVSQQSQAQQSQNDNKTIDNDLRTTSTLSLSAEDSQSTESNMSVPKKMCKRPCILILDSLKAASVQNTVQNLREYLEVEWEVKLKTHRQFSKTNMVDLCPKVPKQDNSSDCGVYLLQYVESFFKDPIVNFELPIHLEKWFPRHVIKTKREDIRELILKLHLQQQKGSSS

[12] = target: T6, Sentrin-specific protease 8 (Homo sapiens, UniProt Q96LD8); assay: inhibition of human SENP8 cleavage activity – biochemical, luminescence, SAR follow-up (AID 504501); assay type: functional
T6 sequence (Q96LD8 whole entry): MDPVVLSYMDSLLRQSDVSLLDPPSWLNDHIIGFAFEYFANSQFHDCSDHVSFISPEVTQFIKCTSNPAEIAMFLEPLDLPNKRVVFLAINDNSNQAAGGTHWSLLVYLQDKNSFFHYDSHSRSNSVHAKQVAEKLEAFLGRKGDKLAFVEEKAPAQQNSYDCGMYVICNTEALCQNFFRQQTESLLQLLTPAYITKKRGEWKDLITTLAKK

[13] = target: Leukocyte tyrosine kinase receptor (Homo sapiens, UniProt P29376); assay: Navigating the Kinome. Panel member name: LTK; assay type: functional
[14] = target: Serine/threonine-protein kinase TAO1 (Homo sapiens, UniProt Q7L7X3); assay type: functional
[15] = target: Tyrosine-protein phosphatase non-receptor type 11 (Homo sapiens, UniProt Q06124); assay: PTPN11 enzyme inhibitors – biochemical, selectivity assay for STEP inhibitor project, dose response (AID 602367); assay type: functional; conditions: read-out: IC50_Mean
[16] = target: Tyrosine-protein phosphatase non-receptor type 5 (Homo sapiens, UniProt P54829); assay: PTPN5 enzyme inhibition – biochemical, fluorescence intensity, uHTS hits, confirmation (AID 602372); assay type: functional; conditions: read-out: IC50_Mean
[17] = target: Dual specificity protein phosphatase 3 (Homo sapiens, UniProt P51452); assay: VHR phosphatase inhibition, dose response, selectivity assay for STEP inhibitor project, biochemical (AID 602374); assay type: functional; conditions: read-out: IC50_Mean
Chain of Dual specificity protein phosphatase 3 (P51452 whole entry): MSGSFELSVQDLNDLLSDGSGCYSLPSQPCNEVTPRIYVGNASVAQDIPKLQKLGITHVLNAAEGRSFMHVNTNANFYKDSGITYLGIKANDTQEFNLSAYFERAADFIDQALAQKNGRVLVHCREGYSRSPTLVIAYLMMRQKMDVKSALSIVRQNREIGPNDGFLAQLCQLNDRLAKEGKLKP

Chain of Melanin-concentrating hormone receptor 1 (Q99705 whole entry): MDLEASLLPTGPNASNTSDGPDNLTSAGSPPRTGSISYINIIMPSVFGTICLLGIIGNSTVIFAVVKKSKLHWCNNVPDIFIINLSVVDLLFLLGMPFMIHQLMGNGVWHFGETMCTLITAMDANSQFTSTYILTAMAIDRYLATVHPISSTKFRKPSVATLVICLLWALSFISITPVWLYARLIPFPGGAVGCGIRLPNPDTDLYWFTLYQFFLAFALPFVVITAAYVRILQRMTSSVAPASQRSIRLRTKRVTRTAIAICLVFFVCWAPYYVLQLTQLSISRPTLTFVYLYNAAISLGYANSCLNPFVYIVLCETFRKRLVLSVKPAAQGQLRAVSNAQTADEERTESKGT
Chain of 26S proteasome non-ATPase regulatory subunit 14 (O00487 whole entry): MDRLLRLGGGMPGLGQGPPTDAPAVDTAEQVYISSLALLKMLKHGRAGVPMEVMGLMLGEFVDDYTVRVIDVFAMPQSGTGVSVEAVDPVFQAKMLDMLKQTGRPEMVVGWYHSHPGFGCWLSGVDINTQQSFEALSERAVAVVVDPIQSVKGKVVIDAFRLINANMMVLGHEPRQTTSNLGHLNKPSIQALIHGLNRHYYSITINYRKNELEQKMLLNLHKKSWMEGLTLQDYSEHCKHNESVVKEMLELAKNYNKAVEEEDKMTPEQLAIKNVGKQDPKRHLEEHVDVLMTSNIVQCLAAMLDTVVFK
Chain of 72 kDa type IV collagenase (P08253 whole entry): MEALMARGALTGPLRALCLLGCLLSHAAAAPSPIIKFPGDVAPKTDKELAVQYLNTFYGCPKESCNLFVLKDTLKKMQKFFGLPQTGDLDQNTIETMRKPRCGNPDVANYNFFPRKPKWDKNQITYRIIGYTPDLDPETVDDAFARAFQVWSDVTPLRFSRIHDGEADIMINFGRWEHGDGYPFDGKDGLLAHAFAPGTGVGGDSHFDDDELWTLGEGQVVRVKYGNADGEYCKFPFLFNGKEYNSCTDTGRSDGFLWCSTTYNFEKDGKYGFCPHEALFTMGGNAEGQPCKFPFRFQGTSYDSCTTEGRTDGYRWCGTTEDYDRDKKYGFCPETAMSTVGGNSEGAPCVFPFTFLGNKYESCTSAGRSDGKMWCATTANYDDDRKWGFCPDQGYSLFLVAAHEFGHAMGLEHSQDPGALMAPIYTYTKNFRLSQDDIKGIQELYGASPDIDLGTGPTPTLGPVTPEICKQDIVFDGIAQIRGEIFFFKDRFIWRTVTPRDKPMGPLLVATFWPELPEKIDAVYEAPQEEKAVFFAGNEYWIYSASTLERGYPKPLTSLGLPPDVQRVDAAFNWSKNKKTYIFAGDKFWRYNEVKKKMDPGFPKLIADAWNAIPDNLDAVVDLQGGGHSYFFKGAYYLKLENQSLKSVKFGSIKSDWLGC
Chain of Induced myeloid leukemia cell differentiation protein Mcl-1 (Q07820 whole entry): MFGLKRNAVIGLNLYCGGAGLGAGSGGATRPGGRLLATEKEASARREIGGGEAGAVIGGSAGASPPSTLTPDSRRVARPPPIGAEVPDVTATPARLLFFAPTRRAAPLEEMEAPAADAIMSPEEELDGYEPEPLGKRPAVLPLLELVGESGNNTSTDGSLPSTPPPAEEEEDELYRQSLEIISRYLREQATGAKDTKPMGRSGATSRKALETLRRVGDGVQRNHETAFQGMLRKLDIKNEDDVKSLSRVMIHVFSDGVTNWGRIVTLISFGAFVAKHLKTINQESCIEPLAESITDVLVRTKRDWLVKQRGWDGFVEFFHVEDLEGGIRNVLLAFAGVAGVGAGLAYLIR
Chain of Serine/threonine-protein kinase TAO1 (Q7L7X3 whole entry): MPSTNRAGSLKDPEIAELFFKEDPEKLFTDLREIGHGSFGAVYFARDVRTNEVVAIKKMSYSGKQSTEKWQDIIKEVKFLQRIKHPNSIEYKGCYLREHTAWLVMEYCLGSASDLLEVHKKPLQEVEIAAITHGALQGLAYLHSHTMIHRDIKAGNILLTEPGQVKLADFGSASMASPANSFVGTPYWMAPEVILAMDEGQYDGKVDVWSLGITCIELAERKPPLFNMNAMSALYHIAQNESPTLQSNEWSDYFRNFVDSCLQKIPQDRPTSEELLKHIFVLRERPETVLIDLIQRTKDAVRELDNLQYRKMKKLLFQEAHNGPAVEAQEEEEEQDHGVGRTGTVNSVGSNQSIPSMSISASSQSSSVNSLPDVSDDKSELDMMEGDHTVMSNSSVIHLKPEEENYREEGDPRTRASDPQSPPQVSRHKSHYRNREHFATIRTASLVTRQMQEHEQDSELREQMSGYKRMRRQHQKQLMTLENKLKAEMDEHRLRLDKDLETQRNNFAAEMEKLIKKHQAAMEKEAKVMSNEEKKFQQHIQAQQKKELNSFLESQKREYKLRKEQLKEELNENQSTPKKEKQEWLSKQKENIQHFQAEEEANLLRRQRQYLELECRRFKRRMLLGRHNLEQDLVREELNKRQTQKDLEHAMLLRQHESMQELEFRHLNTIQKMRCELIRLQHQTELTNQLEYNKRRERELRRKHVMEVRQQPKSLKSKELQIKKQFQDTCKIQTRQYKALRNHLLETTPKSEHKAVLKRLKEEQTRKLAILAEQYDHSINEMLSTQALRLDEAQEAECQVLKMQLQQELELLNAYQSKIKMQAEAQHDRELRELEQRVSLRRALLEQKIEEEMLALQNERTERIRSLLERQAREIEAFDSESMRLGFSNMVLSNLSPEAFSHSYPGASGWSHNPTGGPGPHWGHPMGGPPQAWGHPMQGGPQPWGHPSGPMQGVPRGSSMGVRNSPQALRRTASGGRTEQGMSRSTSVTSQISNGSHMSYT
Chain of Tyrosine-protein phosphatase non-receptor type 11 (Q06124 whole entry): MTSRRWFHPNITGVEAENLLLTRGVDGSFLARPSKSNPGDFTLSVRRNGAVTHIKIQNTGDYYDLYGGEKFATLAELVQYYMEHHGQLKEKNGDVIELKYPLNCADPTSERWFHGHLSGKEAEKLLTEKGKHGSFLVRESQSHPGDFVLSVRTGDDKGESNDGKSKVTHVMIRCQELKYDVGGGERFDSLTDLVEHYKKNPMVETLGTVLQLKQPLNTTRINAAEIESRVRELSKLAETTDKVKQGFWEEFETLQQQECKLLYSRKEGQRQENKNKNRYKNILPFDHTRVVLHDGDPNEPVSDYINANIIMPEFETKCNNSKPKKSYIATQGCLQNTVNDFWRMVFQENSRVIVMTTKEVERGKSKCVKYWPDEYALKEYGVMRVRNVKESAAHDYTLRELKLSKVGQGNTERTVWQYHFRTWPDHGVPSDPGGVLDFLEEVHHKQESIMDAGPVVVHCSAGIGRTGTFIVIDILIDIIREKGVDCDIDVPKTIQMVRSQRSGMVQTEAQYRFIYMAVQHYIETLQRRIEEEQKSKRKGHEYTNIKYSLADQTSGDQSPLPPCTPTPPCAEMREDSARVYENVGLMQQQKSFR
Chain of Leukocyte tyrosine kinase receptor (P29376 whole entry): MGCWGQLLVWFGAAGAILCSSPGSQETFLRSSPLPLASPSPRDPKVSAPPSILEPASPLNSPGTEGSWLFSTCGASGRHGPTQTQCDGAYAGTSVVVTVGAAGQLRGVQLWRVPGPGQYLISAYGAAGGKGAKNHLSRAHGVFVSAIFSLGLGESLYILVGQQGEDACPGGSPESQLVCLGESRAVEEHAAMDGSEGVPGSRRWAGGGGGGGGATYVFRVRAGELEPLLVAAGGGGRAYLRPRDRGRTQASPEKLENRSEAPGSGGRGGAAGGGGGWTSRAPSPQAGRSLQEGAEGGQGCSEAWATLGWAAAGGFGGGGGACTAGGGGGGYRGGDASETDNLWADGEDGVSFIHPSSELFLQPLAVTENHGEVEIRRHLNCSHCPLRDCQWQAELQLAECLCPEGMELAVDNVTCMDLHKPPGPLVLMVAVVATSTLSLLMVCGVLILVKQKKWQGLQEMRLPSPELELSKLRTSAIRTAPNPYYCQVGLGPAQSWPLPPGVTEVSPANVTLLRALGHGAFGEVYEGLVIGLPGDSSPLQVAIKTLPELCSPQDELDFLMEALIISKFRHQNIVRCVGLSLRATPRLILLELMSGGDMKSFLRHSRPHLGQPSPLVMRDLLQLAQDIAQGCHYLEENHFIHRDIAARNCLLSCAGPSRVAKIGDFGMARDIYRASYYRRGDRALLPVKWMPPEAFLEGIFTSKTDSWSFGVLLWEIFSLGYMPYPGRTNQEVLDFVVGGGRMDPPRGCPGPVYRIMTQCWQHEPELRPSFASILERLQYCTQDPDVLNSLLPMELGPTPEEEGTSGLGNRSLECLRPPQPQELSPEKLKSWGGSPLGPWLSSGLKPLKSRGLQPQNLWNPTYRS
Chain of Tyrosine-protein phosphatase non-receptor type 5 (P54829 whole entry): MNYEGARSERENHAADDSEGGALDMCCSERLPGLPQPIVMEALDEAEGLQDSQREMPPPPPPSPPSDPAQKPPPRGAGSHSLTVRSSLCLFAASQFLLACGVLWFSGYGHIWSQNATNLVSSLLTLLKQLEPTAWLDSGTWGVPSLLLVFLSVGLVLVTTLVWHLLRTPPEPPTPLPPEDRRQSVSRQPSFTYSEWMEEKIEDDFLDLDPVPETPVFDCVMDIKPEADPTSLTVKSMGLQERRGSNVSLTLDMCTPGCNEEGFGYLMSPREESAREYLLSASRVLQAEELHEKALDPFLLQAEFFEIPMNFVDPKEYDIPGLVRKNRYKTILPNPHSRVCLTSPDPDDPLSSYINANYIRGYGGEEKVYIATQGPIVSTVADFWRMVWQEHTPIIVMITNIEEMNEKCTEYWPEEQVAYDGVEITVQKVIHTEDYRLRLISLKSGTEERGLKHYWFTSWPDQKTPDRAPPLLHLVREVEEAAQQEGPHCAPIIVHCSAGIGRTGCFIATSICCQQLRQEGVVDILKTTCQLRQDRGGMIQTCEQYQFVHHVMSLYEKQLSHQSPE

SMILES: Cc1cc(Oc2ccc(C#N)cc2)nc(N2CCOCC2)n1
- EC50 (Insulin-degrading enzyme [1]): > 54.7 µM (inactive)
- EC50 (HEK293 [2]): > 54.7 µM (inactive)
- IC50 (HEK293 [3]): > 89.2 µM (inactive)
- EC50 (Insulin-degrading enzyme [4]): > 54.7 µM (inactive)

SMILES: COc1ccc(/C=C2\C(=O)NC(=S)N2C(=O)c2ccc(C)cc2)cc1
- IC50 (Prothrombin): 40.2 µM (active)
- IC50 [5]: 1.53 µM (not active)
- IC50 [6]: 20 µM (active)
- IC50 [7]: 18.8 µM (active)

SMILES: O=C(/C=C/c1cccs1)Nc1cccc(NC(=O)/C=C/c2cccs2)n1
- IC50 (Prothrombin): 45.6 µM (active)
- IC50 [6]: > 100 µM (inactive)
- IC50 [7]: 48.3 µM (active)

SMILES: COc1cc(OC)cc(Oc2c(Cl)cnn(Cc3cccc4ccccc34)c2=O)c1
- IC50 [8]: > 20 µM (inactive)
- IC50 [9]: 10.1 µM (inactive)

SMILES: CCOc1ccc(Oc2c(N3CCCCC3)c(Br)nn(Cc3cccc4ccccc34)c2=O)cc1
- IC50 [8]: > 20 µM (inactive)
- IC50 [9]: > 20 µM (inactive)

SMILES: COc1cc(OC)cc(-c2nc(/C=C/c3ccccc3)no2)c1
- IC50 (Caspase-3): > 99 µM (inactive)
- IC50 [10]: > 99 µM (inactive)
- IC50 [11]: > 99 µM (inactive)
- IC50 [12]: > 99 µM (inactive)

SMILES: CCCCc1ccc2nc(NC(=O)c3cc(Br)cs3)sc2c1
- IC50 (Caspase-3): > 99 µM (inactive)
- IC50 [10]: > 99 µM (inactive)
- IC50 [11]: > 99 µM (inactive)
- IC50 [12]: > 99 µM (inactive)

SMILES: O=C(O)C1CN(Cc2ccc(OCc3ccc(Cl)cc3Cl)cc2)C1
- Ki [13]: 2.51 µM (active)
- Ki [14]: 1 µM (active)

SMILES: CCN1CCN(C(=S)c2ccc(OCC(=O)NCc3ccccc3)cc2)CC1
- IC50 [15]: 3.35 µM (active)
- IC50 [16]: 45.3 µM (inactive)
- IC50 [17]: 1.92 µM (active)
